Assay results taken from article PMC11062922 (Nature Chemical Biology, 2023).
Read-outs that look alike come from different tables or passages of the source.

What was measured:
ACOX1 = molecular target: T1, ACOX1 (Homo sapiens, UniProt Q15067); test: Kinobeads two-dose competition binding: ACOX1;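 note: competition of compounds with immobilized broad-spectrum kinase inhibitor beads in cell lysate at 100 and 1,000 nM, 45 min at 4 °C, bead-bound protein quantified by label-free MS versus DMSO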
T1 construct: endogenous in cells
T1 sequence (Q15067 1-660): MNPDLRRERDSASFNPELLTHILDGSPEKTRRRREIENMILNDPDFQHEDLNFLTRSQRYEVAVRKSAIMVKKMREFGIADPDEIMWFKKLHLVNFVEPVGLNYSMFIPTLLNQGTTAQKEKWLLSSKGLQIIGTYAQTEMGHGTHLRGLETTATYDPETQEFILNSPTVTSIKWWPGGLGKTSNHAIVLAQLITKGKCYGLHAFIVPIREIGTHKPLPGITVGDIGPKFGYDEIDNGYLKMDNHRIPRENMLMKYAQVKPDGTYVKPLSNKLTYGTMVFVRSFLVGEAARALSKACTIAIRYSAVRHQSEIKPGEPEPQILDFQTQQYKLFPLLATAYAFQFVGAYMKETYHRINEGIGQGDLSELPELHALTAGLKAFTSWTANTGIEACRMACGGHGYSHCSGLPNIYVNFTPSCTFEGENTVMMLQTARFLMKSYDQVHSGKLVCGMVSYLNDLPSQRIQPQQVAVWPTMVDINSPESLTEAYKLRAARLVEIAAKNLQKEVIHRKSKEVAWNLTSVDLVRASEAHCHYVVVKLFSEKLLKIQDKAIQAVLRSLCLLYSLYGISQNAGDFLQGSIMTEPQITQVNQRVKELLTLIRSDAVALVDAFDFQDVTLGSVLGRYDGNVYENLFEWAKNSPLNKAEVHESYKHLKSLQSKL

AAK1 = molecular target: T2, AAK1 (Homo sapiens, UniProt Q2M2I8); test: Kinobeads two-dose competition binding: AAK1;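 note: kinobeads competition pulldown from cell lysate, compound preincubated 45 min at 4 °C, bead-bound protein measured by label-free mass spectrometry against DMSO vehicle control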
T2 construct: to maximize the representation of endogenous proteins; endogenous in cells

GSK3B = molecular target: T3, GSK3B (Homo sapiens, UniProt P49841); test: Kinobeads two-dose competition binding: GSK3B; conditions: for CATDS: target GSK3B
T3 construct: endogenous in cells

MAP3K6 = molecular target: T4, MAP3K6 (Homo sapiens, UniProt O95382); test: Kinobeads two-dose competition binding: MAP3K6; conditions: for CATDS: target MAP3K6
T4 construct: endogenous in cells
T4 sequence (O95382 1-1288): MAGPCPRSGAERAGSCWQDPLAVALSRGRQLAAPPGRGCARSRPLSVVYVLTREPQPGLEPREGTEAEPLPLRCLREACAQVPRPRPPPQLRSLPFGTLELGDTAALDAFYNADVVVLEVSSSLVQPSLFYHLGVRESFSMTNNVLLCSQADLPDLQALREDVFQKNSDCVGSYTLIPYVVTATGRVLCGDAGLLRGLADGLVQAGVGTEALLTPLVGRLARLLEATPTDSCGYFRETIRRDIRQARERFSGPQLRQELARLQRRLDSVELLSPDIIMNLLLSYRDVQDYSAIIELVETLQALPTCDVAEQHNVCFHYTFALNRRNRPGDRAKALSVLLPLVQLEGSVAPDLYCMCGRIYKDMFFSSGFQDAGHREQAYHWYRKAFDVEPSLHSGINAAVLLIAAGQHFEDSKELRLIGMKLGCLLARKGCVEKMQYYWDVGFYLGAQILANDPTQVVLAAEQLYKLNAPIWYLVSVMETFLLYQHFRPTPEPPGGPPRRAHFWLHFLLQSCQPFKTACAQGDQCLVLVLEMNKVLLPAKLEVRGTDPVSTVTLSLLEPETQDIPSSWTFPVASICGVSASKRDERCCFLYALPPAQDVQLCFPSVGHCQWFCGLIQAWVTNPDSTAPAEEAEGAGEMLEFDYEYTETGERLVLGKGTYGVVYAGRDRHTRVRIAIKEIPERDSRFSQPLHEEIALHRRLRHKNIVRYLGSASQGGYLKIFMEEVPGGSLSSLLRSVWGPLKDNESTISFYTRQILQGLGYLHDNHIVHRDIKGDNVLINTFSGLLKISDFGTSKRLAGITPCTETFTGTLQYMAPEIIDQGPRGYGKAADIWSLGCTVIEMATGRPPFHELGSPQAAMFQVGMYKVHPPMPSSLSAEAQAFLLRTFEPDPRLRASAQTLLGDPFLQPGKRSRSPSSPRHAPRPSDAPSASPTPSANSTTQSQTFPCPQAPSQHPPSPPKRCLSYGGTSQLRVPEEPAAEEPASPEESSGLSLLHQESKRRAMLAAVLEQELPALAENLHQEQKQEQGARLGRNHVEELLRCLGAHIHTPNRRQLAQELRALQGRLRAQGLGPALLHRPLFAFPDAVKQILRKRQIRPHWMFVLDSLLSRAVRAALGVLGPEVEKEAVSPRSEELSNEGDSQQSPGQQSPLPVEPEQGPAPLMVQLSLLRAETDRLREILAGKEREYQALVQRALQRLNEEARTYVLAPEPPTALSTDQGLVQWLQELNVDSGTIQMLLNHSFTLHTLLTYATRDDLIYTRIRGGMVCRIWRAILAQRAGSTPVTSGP

[1] = sheet CATDS matrix 2, Gene Name ACOX1
[2] = sheet CATDS matrix 2, Gene Name AAK1

T3 sequence (P49841 whole entry): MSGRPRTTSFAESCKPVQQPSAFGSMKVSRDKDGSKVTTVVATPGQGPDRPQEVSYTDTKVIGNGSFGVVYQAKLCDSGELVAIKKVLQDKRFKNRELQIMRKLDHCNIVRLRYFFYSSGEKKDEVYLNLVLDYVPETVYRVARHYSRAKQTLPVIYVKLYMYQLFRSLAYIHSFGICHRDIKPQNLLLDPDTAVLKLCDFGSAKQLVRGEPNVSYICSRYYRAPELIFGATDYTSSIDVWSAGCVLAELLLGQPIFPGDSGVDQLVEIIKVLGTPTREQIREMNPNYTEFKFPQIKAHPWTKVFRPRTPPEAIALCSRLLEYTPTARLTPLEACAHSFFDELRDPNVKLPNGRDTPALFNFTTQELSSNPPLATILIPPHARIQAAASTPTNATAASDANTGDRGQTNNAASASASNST
T2 sequence (Q2M2I8 whole entry): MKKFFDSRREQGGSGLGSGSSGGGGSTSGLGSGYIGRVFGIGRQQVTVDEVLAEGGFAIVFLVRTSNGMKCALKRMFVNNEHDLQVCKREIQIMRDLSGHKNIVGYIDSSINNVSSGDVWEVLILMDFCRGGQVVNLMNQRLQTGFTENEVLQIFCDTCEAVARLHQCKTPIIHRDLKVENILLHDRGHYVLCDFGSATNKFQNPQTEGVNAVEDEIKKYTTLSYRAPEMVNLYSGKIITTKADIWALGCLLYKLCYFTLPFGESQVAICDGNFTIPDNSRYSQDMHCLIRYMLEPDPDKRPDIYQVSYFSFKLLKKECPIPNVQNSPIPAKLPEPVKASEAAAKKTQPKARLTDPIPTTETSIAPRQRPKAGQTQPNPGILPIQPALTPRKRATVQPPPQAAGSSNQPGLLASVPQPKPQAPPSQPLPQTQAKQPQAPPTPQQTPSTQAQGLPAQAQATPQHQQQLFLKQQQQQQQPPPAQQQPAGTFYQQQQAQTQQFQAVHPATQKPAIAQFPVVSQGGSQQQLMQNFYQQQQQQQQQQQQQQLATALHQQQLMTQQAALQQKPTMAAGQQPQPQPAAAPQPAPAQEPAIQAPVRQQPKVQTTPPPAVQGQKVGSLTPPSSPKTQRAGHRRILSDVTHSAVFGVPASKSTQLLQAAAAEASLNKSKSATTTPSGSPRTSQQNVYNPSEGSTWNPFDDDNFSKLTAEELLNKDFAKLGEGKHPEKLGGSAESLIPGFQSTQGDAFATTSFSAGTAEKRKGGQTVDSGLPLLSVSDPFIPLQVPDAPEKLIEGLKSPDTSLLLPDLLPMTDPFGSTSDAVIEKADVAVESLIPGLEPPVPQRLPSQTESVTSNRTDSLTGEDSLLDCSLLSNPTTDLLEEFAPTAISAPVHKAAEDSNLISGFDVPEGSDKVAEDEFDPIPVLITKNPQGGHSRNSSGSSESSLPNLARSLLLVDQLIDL

potency estimated from few doses (AAK1; sheet "Kinobeads Drugmatrix - all", unit inferred, same values below 1000 recur in sheet "nanomolar", read-out: Kinobeads Drugmatrix - all: apparent Kd, AAK1) | potency estimated from few doses (GSK3B; Kinobeads two-dose, Drugmatrix - all 2, read-out: apparent Kd GSK3B) | potency estimated from few doses (MAP3K6; Kinobeads two-dose, Drugmatrix - all 2, read-out: apparent Kd MAP3K6) | SMILES | CATDS (ACOX1; [1]) | CATDS (AAK1; [2]) | CATDS (ACOX1; target ACOX1) | CATDS (AAK1; target AAK1) | CATDS (GSK3B) | CATDS (MAP3K6) | potency estimated from few doses (GSK3B; read-out: Lestaurtinib Drugmatrix value, Gene Name GSK3B)
662 nM | 783 nM | 698 nM | CC(C)N1CC(=O)N(C)c2cnc(Nc3cccc(S(=O)(=O)CCN4CCOCC4)c3)nc21 [BI00009348] | 0 | 0.07467 | – | – | – | – | –
– | – | – | CCc1cc2c(cc1N1CCC(N3CCOCC3)CC1)C(C)(C)c1[nH]c3cc(C#N)ccc3c1C2=O [Alectinib] | 0 | 0 | 0 | 0 | 0 | 0 | –
– | – | – | CN(C)C/C=C/C(=O)Nc1cc2c(Nc3ccc(F)c(Cl)c3)ncnc2cc1O[C@H]1CCOC1 [Afatinib] | – | – | – | – | 0 | 0 | –
– | – | – | C#Cc1cccc(Nc2ncnc3cc(OC)c(OC4CCN(C)CC4)cc23)c1 [BI00007366] | 0 | 0 | – | – | – | – | –
– | – | – | Nc1ncnc2[nH]c(-c3ccccc3)nc12 [AH5015_KCGS] | 0 | 0 | 0 | 0 | 0.07826 | 0 | –
– | – | – | CCN1CCN(Cc2ccc(Nc3ncc(F)c(-c4cc(F)c5nc(C)n(C(C)C)c5c4)n3)nc2)CC1 [Abemaciclib] | 0 | 0.04695 | 0 | 0.04695 | – | 0 | –
– | – | – | C[C@]12O[C@H](C[C@]1(O)CO)n1c3ccccc3c3c4c(c5c6ccccc6n2c5c31)CNC4=O [Lestaurtinib] | – | – | – | – | – | – | 295 nM
– | – | – | N#CC1(c2ccc(NC(=O)c3cccnc3NCc3ccncc3)cc2)CCCC1 [Apatinib] | 0 | 0 | 0 | 0 | 0 | 0 | –
